How the values were obtained:
[1] = test system: C57BL/6J mice fed HFHS diet (fatty liver); experiment: high-fat high-sucrose (HFHS) diet induced NAFLD mouse model, therapeutic NR supplementation, liver lipidomics; format: in vivo
Text: (A-C) C57BL/6J mice: (A) Schematic illustration of the three experimental groups used for validation of the NAFLD signatures; mice on CD (green), mice on HFHS diet from 7-25 weeks (grey), mice starting HFHS diet at 7 weeks and treated with nicotinamide riboside (NR) 9 weeks after the start of HFHS diet till the end of the study (for 9 weeks—therapeutic intervention, magenta). (B) Liver total TAG concentration (normalized to liver weight). […] (D-E) Human subjects: (D) PCA of 55 TAG species measured in human plasma from healthy, steatosis and NASH patients. (E) Plasma total TAG levels in human samples. (F-G) BXDs: (F) Correlation matrix showing the Pearson correlation of Atgl mRNA expression in four different metabolic tissues with the pro- and anti-NAFLD TAG signatures in plasma (left) and liver (right) for both diets. (G) Gene ontology biological processes (GO BP) associated with NAFLD TAG signatures. […] Red and blue cells represent the enriched pathways with the positively (scale bar: log 10 p-value) and negatively (scale bar: −log 10 p-value) correlated liver transcripts respectively. For B and E differences in mean TAG levels were compared using two-sample t tests. *p<0.05, **p<0.01, ***p<0.001.
(A) Levels of pro- and anti-NAFLD signatures in C57BL/6J mice fed on CD, high-fat high-sucrose-diet (HFHS) and HFHS diet supplemented with NR, 9 weeks after the initiation of HFHS diet (HFHS+NR). (B) Pearson correlation matrix of the pro- and anti-NAFLD signatures with NAFLD readouts including the NAS score (NAFLD activity score) and liver NAD+ levels. (C) Levels of plasma NAFLD signatures in human subjects with various degrees of NAFLD. (D) Pearson correlation matrix of the NAFLD signatures with NAFLD readouts in human subjects. (E) Pearson correlation of Atgl expression in subcutaneous WAT with pro- and anti-NAFLD plasma TAG signatures in BXD strains. For mice: n=6-9 per group. For human subjects: n=12, healthy; n=7, steatosis; n=14, early stage NASH; n=11, advanced stage NASH. Differences in mean TAG species were compared using two-sample t tests. *p<0.05, **p<0.01, ***p<0.001.
(A) Correlation diagram (corrgram) showing diet-independent association of lipid species with liver mass. […] Note that the CLs—CL(LOOPo), CL(LLPoP) and CL(OOOP)—are shown in the figure with an additional CL species because the two are isobaric and inseparable chromatographically. (F) Corrgram showing negative correlation of obesity and NAFLD traits with healthy CL species and positive correlation with unhealthy CL species.
It was then tested the relevance of these lipids as signatures of fatty liver in a different mouse model of NAFLD (induced by high-fat high-sucrose (HFHS) diet) and tested whether a NAFLD lowering therapeutic intervention, i.e. nicotinamide adenine dinucleotide (NAD^+) precursor, nicotinamide riboside (NR), impacts these lipid markers. As such, the liver lipids were compared of mice fed CD or HFHS diet for 18 weeks, or mice that were fed HFHS diet supplemented with NR 9 weeks after the start of HFHS diet when they had already developed NAFLD (a therapeutic intervention, HFHS+NR) (FIG. 11A). […] Of all the TAG species measured, only 53% were increased in HFHS cohort while 33% were decreased and 14% unchanged (data not shown). […] Importantly, the pro-NAFLD lipids correlated positively, whereas the anti-NAFLD lipids correlated negatively with clinical NAFLD readouts (FIG. 12B).
It was next tested whether this change in the profile of nine CL species is a general phenomenon in other dietary-induced models of hepatic steatosis and mitochondrial dysfunction and if the profile can be reverted by ameliorating hepato-steatosis via enhancing mitochondrial function. It has been previously shown that nicotinamide riboside (NR) treatment ameliorates high-fat high-sucrose (HFHS) diet induced fatty liver disease by boosting nicotinamide adenine dinucleotide (NAD+) levels and thereby enhancing mitochondrial function. […]

[2] = test system: high-fat high-sucrose (HFHS) diet induced fatty liver disease; conditions: previously shown; by boosting NAD+ levels and enhancing mitochondrial function; cited from earlier work

SMILES: NC(=O)c1ccc[n+]([C@@H]2O[C@H](CO)[C@@H](O)[C@H]2O)c1 [NR, nicotinamide riboside]
- liver anti-NAFLD lipids (TAGs 52:5, 52:4, 54:6) ([1]; C57BL/6J mice, HFHS+NR vs HFHS, FIG. 12A): increased the anti-NAFLD lipids only to a slight extent
- liver levels of healthy CLs (CL(LLLL), MLCL(LLL)) ([1]; C57BL/6J mice, HFHS+NR vs HFHS, FIG. 13D): increased
- liver levels of unhealthy CLs (MLCL(LOO), MLCL(LLO), CL(LOOPo), CL(LLPoP), CL(LOOO), CL(OOOP)) ([1]; C57BL/6J mice, HFHS+NR vs HFHS, FIG. 13E): decreased
- liver total TAG concentration ([1]; C57BL/6J mice, HFHS+NR vs HFHS, NR added 9 weeks after start of HFHS diet, 18 weeks total, FIG. 11B): decreased
- liver pro-NAFLD lipids (TAGs 52:2, 54:3, 56:3, 50:2) ([1]; C57BL/6J mice, HFHS+NR vs HFHS, lowered: TAGs 54:3, 56:3, 50:2, FIG. 12A): significantly lowered three of the four pro-NAFLD lipids
- liver NAD+ levels ([1]; steatotic livers of HFHS mice, after NR treatment, FIG. 12B): replenished
- HFHS diet induced fatty liver disease [2]: ameliorates
